Experimental data as given in article PMC11785791, “Cryo-EM structure of the calcium-sensing receptor complexed with the kokumi substance γ-glutamyl-valyl-glycine” (Scientific Reports, 2025).

Format: physicochemical
Details: pH 7.4

Solubility in the assay buffer: low solubility
SMILES: N[C@@H](Cc1c[nH]c2ccccc12)C(=O)O [L-Trp, L-tryptophan]
